Laboratory results from patent publication US20060231107A1, “Antibody-targeted photodynamic therapy” (priority 2003, published 2006).

Experiments:
[1] = system: MS-1 vascular endothelial cells; test: Binding kinetics: fluorescence intensity of labeled MS-1 cells in confocal micrographs; format: cell-based, murine; conditions: within the first 10 minutes of labeling (FIG. 7)
Description: FIG. 7 is a graph of fluorescence intensity of conjugate-labeled and VISUDYNE-labeled MS-1 vascular endothelial cells as a function of incubation time. The fluorescence intensity of confocal micrographs was determined with the “histogram” analysis tool of the ImagePro image processing software program (Media Cybernetics; Silver Springs, Md.). Intensity is expressed as the accumulated pixel counts in the image.
In order to provide a more quantitative comparison of the binding kinetics of the conjugate and the native VISUDYNE, the fluorescence intensity of the MS-1 cells labeled for varying durations was measured in a series of confocal micrographs using the “histogram” tool of ImagePro image processing program (Media Cybernetics; Silver Springs, Md.). […] Accordingly, if the laser activation were to be applied within 10 minutes of application of the conjugate, essentially maximum photodynamic effect would be realized. Targets not expressing the VEGF factor would not be as strongly labeled. This improved selectivity of the conjugate for VEGF-expressing targets is a distinct advantage over the native VISUDYNE.

[2] = system: VEGF-expressing, murine endothelial cells (MS-1 VEGF, ATCC); test: Photodynamic cell viability by trypan blue exclusion; format: cell-based; conditions: for cell viability (trypan blue exclusion) compared with Dulbecco's PBS controls: laser-exposed (647 nm, 56.5 J/cm), verteporfin 40 μg/ml, P<0.0001
Description: FIG. 3 is a graph showing the mean percent cell viability by trypan blue exclusion over eight experimental runs in 24-well culture plates for VEGF-expressing endothelial cells in Dulbecco's phosphate buffered saline (“DPBS”), cells incubated with verteporfin ([sequence]) at 40 μg/ml (“Verteporfin”), and cells incubated with verteporfin ([sequence]) conjugated to anti-VEGF antibody (“Conjugate”). Error bars indicate 1 standard deviation from the mean. The cells received either no laser treatment or were exposed to krypton-ion CW laser (647 nm) at a total light dosage of 56.5 J/cm for either 1 hour (left) or 24 hours (right).
Experiments were conducted in a line of cultured, VEGF-expressing, murine erdothelial cells (MS-1 VEGF, ATCC). Cells were grown in 24-well culture plates under standard cell culture conditions in Dulbecco's minimal essential medium (DMEM) with 10% fetal calf serum. Cells were incubated for one hour with either phosphate buffered saline solution alone, verteporfin at 40 μg/ml, or verteporfin-anti-VEGF antibody conjugate (FIG. 2A). All cells were washed twice with phosphate buffered saline following incubation to remove unbound photosensitizer. The photosensitizer was excited by exposing selected wells to the krypton-ion CW laser (647 nm) at a total light dosage of 56.5 J/cm, which is the recommended ophthalmic light dosage (FIG. 2A). For each treatment condition, there were laser-exposed and non-exposed groups. Following laser exposure, cells were incubated for either 1 or 24 hours, and cell viability was assessed using trypan blue exclusion.

verteporfin
binding to the target cells (fluorescence intensity) [1]: approximately 50 % of maximum binding
cell viability (trypan blue exclusion) compared with Dulbecco's PBS controls ([2]; 1 hour after laser): large losses of viability
cell viability (trypan blue exclusion) compared with Dulbecco's PBS controls ([2]; 24 hours after laser): large losses of viability
cell viability without laser exposure ([2]; no laser, possible toxicity or low-level activation by ambient light): reduced viability
